Data from patent publication US20260174778A1, “SULFONAMIDE COMPOUND, AND PREPARATION METHOD THEREFOR AND USE THEREOF” (SHANGHAI HENLIUS BIOTECH, INC., priority 2023, published 2026).

Test system: human breast cancer ZR-75-1 cell xenograft tumor
Assay: Anti-tumor effect in ER+KAT6high breast cancer cell xenograft tumor model (Test Example 5)
Assay type: in vivo, Balb/c nude mice
Conditions: for T/C / TGI / mean tumor volume: day 35; for body weight changes compared to the PF-8144 group: all doses (0.01, 0.1, 2 mg/kg)
Method: Test Example 5: Anti-Tumor Effects of Test Compounds in ER^+KAT6^high Breast Cancer Cell-Xenograft Tumor Model
Assay method: ZR-75-1 cells were subcutaneously inoculated into the right back of each mouse to evaluate the efficacy of the compounds in the subcutaneous xenograft tumor model of ZR-75-1 cells.
• 1. Cell culture: ZR-75-1 cells were cultured as a monolayer in vitro under the following culture conditions: an RPMI 1640 medium supplemented with 10% fetal bovine serum and 1% Anti-anti (Antibiotic-Antimycotic), incubated in an incubator at 37° C. with 5% CO2. The cells were digested with trypsin-EDTA twice a week for passaging as per conventional practice. When the cell saturation reached 80%-90% and the quantity met the requirement, the cells were harvested, counted, and inoculated. • 2. Animals: Balb/c nude mice, female, 6-8 weeks old, weighing 18-22 g. A total of 128 mice were required (80 mice were enrolled). They were provided by Vital River. • 3. Tumor inoculation: Two days before tumor inoculation, 17-beta estradiol tablets (0.18 mg) were subcutaneously administered, and 10 million ZR-75-1 tumor cells+matrigel (total […]) were subcutaneously inoculated into the right back of each mouse. When the mean tumor volume reached about 137 mm^3, the mice were grouped for administration. • 4. Experimental administration: The compounds were dissolved in 5% DMSO+5% Tween 80+90% Saline, and administered intragastrically (PO) daily for five weeks. • 5. Experimental indicators: The experimental indicators were to investigate whether the tumor growth was inhibited or delayed or the tumor was cured. Tumor diameters were measured twice weekly using a vernier caliper. The tumor volume was calculated using the following formula: V=0.5a×b^2, where a and b represent the long diameter and short diameter of the tumor, respectively. • 6. The anti-tumor efficacy of the compounds was evaluated by TGI (%) or relative tumor proliferation rate T/C (%). TGI (%) refers to the tumor growth inhibition rate. Calculation of TGI (%):TGI (%)=[(1−(mean tumor volume at the end of administration in a treatment group—mean tumor volume at the start of administration in the treatment group))/(mean tumor volume at the end of treatment in the solvent control group—mean tumor volume at the start of treatment in the solvent control group)]×100%. The calculation formula for the relative tumor proliferation rate T/C (%) was as follows: T/C %=TRTV/CRTV×100% (TRTV:RTV of the treatment group; CRTV:RTV of the negative control group). The relative tumor volume (RTV) was calculated based on the tumor measurement results using the following formula: RTV=Vt/V0, where V0 represents the mean tumor volume measured at the time of grouping for administration (i.e., PG-D0), and Vt represents the mean tumor volume at a certain measurement. TRTV and CRTV were derived from data measured on the same day.
The mean and standard error of mean (SEM) of tumor volume at each time point for each group were included. The differences in tumor volume and tumor weight among the groups were statistically analyzed. For comparisons among three or more groups, one-way ANOVA was used for analysis. […] The analysis was performed using SPSS 17.0, and p<0.05 was considered to indicate a significant difference.
For comparisons between different doses of the same drug or different drugs at the same dose, two-way ANOVA was used for analysis, and the Bonferroni method was applied for testing. The analysis was performed using GraphPad Prism 9.0, and p<0.05 was considered to indicate a significant difference. On day 35 after the start of administration, the data between different doses of the same drug or different drugs at the same dose were analyzed using one-way ANOVA. […] The analysis was performed using SPSS 17.0, and p<0.05 was considered to indicate a significant difference.

Structure (SMILES) | T/C (0.01 mg/kg PO QD) [%] | TGI (0.01 mg/kg PO QD) [%] | mean tumor volume (0.01 mg/kg PO QD) | efficacy compared to PF-8144 (0.1 mg/kg PO QD) | T/C (0.1 mg/kg PO QD) [%] | TGI (0.1 mg/kg PO QD) [%] | mean tumor volume (0.1 mg/kg PO QD) [mm^3] | T/C (2 mg/kg PO QD) [%] | TGI (2 mg/kg PO QD) [%] | mean tumor volume (2 mg/kg PO QD) [mm^3] | body weight changes compared to the PF-8144 group
COc1ccc2c(c1S(=O)(=O)Nc1noc3cc(Cn4cccn4)c(F)c(OC)c13)OCCO2 [Compound 28, N-(6-((1H-Pyrazol-1-yl)methyl)-5-fluoro-4-methoxybenzo[d]isoxazol-3-yl)-6-methoxy-2,3-dihydrobenzo[b][1,4]dioxine-5-sulfonamide] | 76.14 | 30.94 | 1,017 mm^3 | significantly superior in efficacy to PF-8144 | 11.36 | 98.07 | 162 | 0.84 | 109.69 | 12 | no statistically significant difference
COc1ccc2c(c1S(=O)(=O)Nc1noc3cc(Cn4cccn4)c(F)c(OC)c13)OCC=C2 [Compound 101, N-(6-((1H-Pyrazol-1-yl)methyl)-5-fluoro-4-methoxybenzo[d]isoxazol-3-yl)-7-methoxy-2H-chromene-8-sulfonamide] | 19.06 | 89.81 | 264 mm^3 | significantly superior in efficacy to PF-8144 | 1.79 | 108.64 | 25 | 0.96 | 109.56 | 14 | no statistically significant difference
COc1ccccc1S(=O)(=O)Nc1noc2cc(Cn3cccn3)cc(OC)c12 [PF-8144, reference compound] | 72.71 | 30.19 | 1,035 mm^3 | – | 40.77 | 65.53 | 580 | 2.51 | 107.85 | 36 | –
